{
  "source": "paper PMC9141032",
  "about": "(International Journal of Molecular Sciences, 2022)",
  "key": {"[1]": {"tested_on": "imidazoline I2 receptors (I2-IR)", "parameters": "method as in ref 32, 33 = [32]; 32. Escolano C. Pallás M. Griñán-Ferré C. Abás S. Callado L.-F. García-Sevilla J.A. Synthetic I 2 Imidazoline Receptor Ligands for Prevention or Treatment of Human Brain Disorders Patent WO 2019/12185 || [33]; PMID 32150414; doi:10.1021/acs.jmedchem.9b02080; 33. Abás S. Rodríguez-Arévalo S. Bagán A. Griñán-Ferré C. Vasilopoulou F. Brocos-Mosquera I. Muguruza C. Pérez B. Molins E. Luque F.J. Bicyclic α-Iminophosphonates as High Affinity Imidazoline I 2 Rec", "conditions": "cited from earlier work"}, "SAMP8 murine model": {"tested_on": "SAMP8 murine model", "conditions": "cited from earlier work"}, "[2]": {"assay": "Metabolic profiling in human liver microsomes (LC-HRMS)", "assay_type": "in vitro ADME", "method": "(§1) The objective of the study is to evaluate the formation of the main metabolites from B06 in HLM incubations and MLM incubations preceding the in vivo metabolic study, using these same incubations to identify the possible metabolites. […] Reactions without NADPH were also incubated to rule out non-NADPH metabolism or chemical instability in the incubation buffer. Verapamil was included as positive control to monitor incubation course. All reactions were terminated using 60 µL of ice-cold acetonitrile at 0, 5, 15, 30, 45, and 60 min. The plates were centrifugated at 3500 rpm for 15 min. All experiments were conducted in triplicates. Samples were analysed by LC-HMRS in positive ionization mode. Compound incubations without NADPH and compound reference standard were used as interference control for each incubation sample.\nMetabolic profiling of B06 in human liver microsomes\nThe equipment used for the analysis was an Agilent 1290 Infinity UHPC, ABSciex 5600 QTOF Mass Spectrometer, Metabolite Pilot V 1.5 Sofware.\nMethod: ionization mode, electrospray positive; acquisition mode, TOF MS with IDA MS/MS; […]\nAll the tentative identified metabolites have been evaluated using of a score (40 value). This score depend on mass defect, isotope pattern, mass a ccur a cy and MS/MS. In all the cases the score was equal or greater than 68%.\nTable S9. Metabolite time course in HLM incubations for B06\nPeak Description Time Formula m/z Mass R.T. Peak % %\nID incubation error (min) Area Area Score […]"}, "[3]": {"assay": "Metabolic profiling in mouse liver microsomes (LC-HRMS)", "assay_type": "in vitro ADME", "method": "as §1\nMetabolic profiling of B06 in mouse liver microsomes\nThe equipment used for the analysis wa s an Agilent 1290 Infinity UHPC, ABSciex 5600 QTOF Mass Spectrometer, Metabolite Pilot V 1.5 Sofware.\nMethod: ionization mode, electrospray positive; acquisition mode, TOF MS with IDA MS/MS; colum, Atlantis T3 C18, 2.1 x 15 mm, 3 μ m; mobile phase, water:acetonitrile: 0.1% formic acid; flow […]\nAll the tentative identified metabolites have been evaluated using of a score (40 value). This score depend on mass defect, isotope pattern, mass accuracy and MS/MS. In all the cases the score was equal or greater than 68%.\nAll analytical determinations of B06 were performed in according to the recommendations of the […]\nTable S10. Metabolite time course in MLM incubations for B06\nPeak Description Time Formula m/z Mass R.T. Peak Area % %\nID incubation error (min) Area Score\n1 Safety testing of drug metabolites. Guidance for industry. U.S. Department of Health and Human Services Food and Drug Administration Center for Drug Evaluation and Research (CDER) March 2020 Pharmacology/Toxicology. https://www.fda.gov/regulatory‐information/search‐fda‐guidance‐ documents/safety‐testing‐drug‐metabolites"}},
  "data": [
    {"smiles": "c1ccc2c(c1)OCC(C1=NCCN1)O2", "note": "(stereo not shown) [idazoxan]", "values": [
      {"measurement": "ratio of I2/α2", "setting": "[1]; I2-IR ([3H]2-BFI) versus α2-AR ([3H]RX821002), human frontal cortex", "result": "non I2/α2 selectivity"},
      {"measurement": "pKi", "setting": "[1]; membranes of post mortem human frontal cortex, against [3H]2-BFI", "result": "7.41 ± 0.63"}
    ]},
    {"smiles": "CCOP(=O)(OCC)C1(c2ccccc2)N=CN(Cc2ccc(F)c(Cl)c2)C1(C)C", "note": "(stereo not shown) [MCR5]", "values": [
      {"measurement": "effect on cognition and hallmarks", "setting": "SAMP8 murine model", "result": "cognitive improvement and amelioration of hallmarks"}
    ]},
    {"smiles": "CCOP(=O)(O)[C@]1(c2ccccc2)N=C[C@H]2C(=O)N(c3ccc(F)c(Cl)c3)C(=O)[C@H]21", "note": "[Compound 1, ethyl hydrogen [(1R,3aS,6aS)-5-(3-chloro-4-fluorophenyl)-4,6-dioxo-1-phenyl-1,3a,4,5,6,6a-hexahydropyrrolo[3,4-c]pyrrol-1-yl]phosphonate]", "values": [
      {"measurement": "% Area of metabolite in chromatogram", "setting": "[2]; HLM incubation of B06, 15 min", "result": 8.4, "unit": "%"},
      {"measurement": "% Area of metabolite in chromatogram", "setting": "[2]; HLM incubation of B06, 30 min", "result": 17.8, "unit": "%"},
      {"measurement": "% Area of metabolite in chromatogram", "setting": "[2]; HLM incubation of B06, 45 min", "result": 26.2, "unit": "%"},
      {"measurement": "% Area of metabolite in chromatogram", "setting": "[2]; HLM incubation of B06, 60 min", "result": 36, "unit": "%"},
      {"measurement": "% Area of metabolite in chromatogram", "setting": "[2]; HLM incubation of B06, 60 min, listed as M1", "result": 36.0, "unit": "%"},
      {"measurement": "% Area of metabolite in chromatogram", "setting": "[3]; MLM incubation of B06, 5 min", "result": 10.7, "unit": "%"},
      {"measurement": "% Area of metabolite in chromatogram", "setting": "[3]; MLM incubation of B06, 15 min", "result": 30.9, "unit": "%"},
      {"measurement": "% Area of metabolite in chromatogram", "setting": "[3]; MLM incubation of B06, 30 min", "result": 60.9, "unit": "%"},
      {"measurement": "% Area of metabolite in chromatogram", "setting": "[3]; MLM incubation of B06, 45 min", "result": 81.6, "unit": "%"},
      {"measurement": "% Area of metabolite in chromatogram", "setting": "[3]; MLM incubation of B06, 60 min", "result": 88.9, "unit": "%"}
    ]}
  ]
}
